Results reported in patent US9782345B2, “Ocular composition and method” (Jade Therapeutics, Inc, priority 2013, dated 2017).

Assay: Tobramycin release study from CMHA-S/PEGDA films (OPA fluorescence assay)
Type: physicochemical
Description: Tobramycin sulfate (2 mg/film) and tobramycin free base (2 mg/film) were used for this study. As tobramycin absorbs UV weakly, OPA assay and measuring fluorescence were used to calculate cumulative release of tobramycin. Amount of release tobramycin was calculated from standard curve. The accumulated release amount of tobramycin was more than 1 mg (thus more than 50% release) over 7 days.
Drug-loaded films were placed in PBS for the antibiotic release study. The fluid was removed and assayed daily. For tobramycin, detection was performed using an O-phthaldialdehyde (OPA) reagent. OPA, in the presence of reduced sulfhydryl groups, reacts with the primary amine group in tobramycin to form fluorescent moieties. The fluorescence was measured at an excitation wavelength of 360 nm, and an emission wavelength of 460 nm. The amount of released drug was calculated using a standard solution of tobramycin. For moxifloxacin, UV absorption at 293 nm was used to measure the amount of released drug. The amount of released drug was calculated using a standard solution of moxifloxacin. This removed fluid was also used to assess the bactericidal capability of released antibiotic by the disk diffusion method on agar plates seeded with S. aureus and P. aeruginosa measuring zone of inhibition (ZOI). Similar ZOI bacterial work was also performed using the actual films by an outside lab, Analytical Resource Lab (ARL, Salt Lake City, Utah).
Each film contained 40 μg of tobramycin free base. CMHA-S films were made with 3 different crosslinking ratios: 1.5, 2.0, or 2.5. As tobramycin absorbs UV weakly, OPA assay was used to measure fluorescence using low concentrations of tobramycin. The amount of released tobramycin was calculated from a standard curve. The accumulated released amount of tobramycin was more than 20 μg (thus more than 50% release) over 7 days. The release increased continuously up to day 3 and remained unchanged for the different thiol to acrylate ratios.

With NC[C@H]1O[C@H](O[C@H]2[C@H](O)[C@@H](O[C@H]3O[C@H](CO)[C@@H](O)[C@H](N)[C@H]3O)[C@H](N)C[C@@H]2N)[C@H](N)C[C@@H]1O [tobramycin] the “release of tobramycin (share of load)” value (40 μg tobramycin free base per film, over 7 days (FIG. 5)) was “more than 50%”, the “accumulated released amount of tobramycin” value (40 μg tobramycin free base per film, thiol to acrylate 1.5, 2.0, 2.5, over 7 days (FIG. 5)) was “more than 20 μg” and the “accumulated release amount of tobramycin” value (2 mg/film tobramycin sulfate or free base, thiol to acrylate 1.5 and 2.0, over 7 days (FIG. 3)) was “more than 1 mg”. For the same compound, the “release of tobramycin (share of load)” value (2 mg/film, over 7 days (FIG. 3)) was “more than 50%”.
